{"source": "patent US7541173B2", "about": "“Solvent tolerant microorganisms and methods of isolation” (E.I. du Pont de Nemours and Company, priority 2006, dated 2009)", "key": {"[1]": {"test_system": "butanol tolerant Lactobacillus strains", "assay_type": "cell-based", "conditions": "S20 agar or TSA agar, 37° C., 24 to 72 h", "experimental": "The square-well microtiter plate was sealed with an adhesive cover (Beckman Coulter Inc.; Catalog No. 538619) and incubated at 37° C. with shaking for up to 72 h. The square-well microtiter plate was used to make a master plate by dispensing 200 μL of culture from each square well into a corresponding well in a “U-bottom” microtiter plate (VWR Scientific Products, West Chester, Pa.; Catalog No. 62409-052)."}, "[2]": {"test_system": "microbial consortium from wastewater sludge samples", "conditions": "1-butanol 1.6%, chemostat, 37° C."}, "[3]": {"test_system": "most microorganisms described in the art", "conditions": "liquid medium at 37° C.; cited from earlier work"}}}
{"substance": "1-butanol", "values": [{"measurement": "1-butanol concentration in agar medium on which isolates grew", "setting": "[1]", "value": 3, "unit": "%"}, {"measurement": "cell density after continued incubation", "setting": "[2]; after adaptation", "value": 2.3, "unit": "OD600"}, {"measurement": "cell density after increasing 1-butanol in feed", "setting": "[2]; initial decrease", "value": "less than 1.5 OD600"}, {"measurement": "concentration at which growth is totally inhibited", "setting": "[3]", "value": "less than 2.0 % w/v"}]}
